The values below come from patent US20250387359A1, “COMPOUNDS AND METHODS FOR THE TREATMENT OF PARASITIC INFECTIONS” (THE BOARD OF TRUSTEES OF THE UNIVERSITY OF ILLINOIS, priority 2019, published 2025).

For data set [1], the target named is T1, recombinant CpLDH protein (Cryptosporidium parvum, UniProt Q9GT92, F198L/K295E/R251K). Briefly: biochemical. Type of data set: biochemical. The following applies: 20 μM compound; 10 mM pyruvate, 1 mM NADH. Here is the method: (§1) Biochemical assays. The coding sequence of CpLDH was cloned from cDNA prepared from the AUCP-1 isolate of C. parvum, and the His-tagged CpLDH recombinant protein expressed in Escherichia coli, and purified in native form essentially as previously described (Int. J. Parasitol. 2017; 47(13), 867-874). Briefly, cDNA was prepared from total RNA extracted from the AUCP-1 isolate of C. parvum, and the coding sequencing of CpLDH (Genebank accession number AF274310.1) was PCR-amplified from the cDNA using a primer pair with a XhoI restriction site and a BamHI site. The PCR amplicon was cloned at the XhoI/BamHI site of the pET15b expression vector in-frame with the hexahistidine (His-tag) at the N-terminal and sequenced to confirm identity. The recombinant expression vector was transformed into protein expression E. coli BL21-CodonPlus-DE3-RIL (Stratagene). Transformed E. coli was cultured at 37° C. in Luria broth medium (supplemented with 100 μg/ml ampicillin and 34 μg/ml chloramphenicol) to an A600 of 0.8 followed by addition of 1 mM isopropyl-β-d-thiogalactopyranoside to induce protein expression. The expression E. coli was harvested and lysed under native conditions by sonicating in lysis buffer (50 mM NaH2PO4, 300 mM NaCl, 10 mM Imidazole, pH 8.0) containing a 1× EDTA-free protease inhibitor cocktail, 600 units benzonase and 30 kU lysozyme (EMD Millipore). The lysate was clarified by centrifugation and the His-tagged recombinant protein purified under native conditions by nickel-affinity chromatography according to the manufacturer's instructions (Novagen). The wash buffer used contained 50 mM NaH2PO4, 300 mM NaCl and 20 mM Imidazole, pH 8.0, while the elution buffer was composed of 50 mM NaH2PO4, 300 mM NaCl, 250 mM Imidazole, pH 8.0. The eluate was dialyzed using a buffer containing 5 mM Hepes-KOH (pH 7.8) and 0.5 mM DTT. The purity of the recombinant protein was determined by SDS/PAGE, and the concentration measured using a Qubit 3.0 fluorometer (Life technologies). […] On the other hand, the catalytic activity of CpLDH recombinant protein for the oxidation of lactate to pyruvate was determined by measuring the change in optical density of a 100 μl reaction mixture containing 100 mM lactate, 1 mM NAD^+, 100 mM Tris, pH 9.2, with varying concentrations of CpLDH recombinant protein at 25° C. […] In all assays, reaction mixtures without recombinant CpLDH protein were included as negative controls. All assays were performed in triplicate and repeated at least thrice. The change in optical density was measured every 15 seconds for a total of 2 minutes using a Spectra Max 384 Plus plate reader (Molecular Devices) at a wavelength of 340 nm.
T1 sequence (Q9GT92 whole entry F198L/K295E/R251K): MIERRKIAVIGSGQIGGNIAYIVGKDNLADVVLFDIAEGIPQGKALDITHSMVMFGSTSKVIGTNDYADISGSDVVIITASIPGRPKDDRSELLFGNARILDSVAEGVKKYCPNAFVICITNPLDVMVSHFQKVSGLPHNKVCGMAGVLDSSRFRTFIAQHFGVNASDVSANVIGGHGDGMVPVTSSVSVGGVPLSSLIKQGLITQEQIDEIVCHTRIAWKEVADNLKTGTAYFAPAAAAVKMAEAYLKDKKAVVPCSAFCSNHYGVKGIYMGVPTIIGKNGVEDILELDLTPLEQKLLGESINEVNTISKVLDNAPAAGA
Screening compounds for inhibitory activity against CpLDH. The chemical compounds were obtained from the National Cancer Institute/Developmental Therapeutics Program Open Chemical Repository. They consisted of a diverse set of compounds (n=27) reported previously (Int J Parasitol Drugs Drug Resist. 2016; 6(1), 44-53), and a Mechanistic Set IV compounds (n=800). The compounds were reconstituted in dimethyl sulfoxide (DMSO) as stock solutions. Just before use, aliquots of the stock solutions were diluted in sterile distilled water to generate working solutions, such that the final amount of DMSO added to the reaction mixtures was less than 1% (V/V). The compounds were tested for their inhibitory effect against the enzymatic activity of recombinant His-tagged CpLDH for catalyzing the reduction of pyruvate to lactate. […] Control reactions without recombinant CpLDH protein were included. Reactions were performed in triplicate and repeated at least thrice. The change in optical density was measured every 15 seconds for a total of 2 minutes using a Spectra Max 384 Plus plate reader (Molecular Devices) at a wavelength of 340 nm.

Another data set deals with HCT-8 cells. Briefly: Compound cytotoxicity assay (WST-1) in HCT-8 cells. Type of data set: cell-based, human. The procedure: Compound cytotoxicity assay. […] A colorimetric assay using the cell proliferation reagent WST-1 (Roche, USA) for the quantification of cell viability was performed. […] When the cells were confluent, the old medium was replaced with fresh medium with or without varying concentrations of chemical compound. After 24 h of culture, 10 μl of the cell proliferation reagent WST-1, (for quantification of cell viability) was added to each well, mixed and the plates incubated for 1 h at 37 C with 5% CO2 in the dark. […] Molecular Devices, USA).
In general terms: Tetrazolium assays rely on reduction of a dye to a coloured formazan, in cell work by metabolically active cells.

Data set [2] deals with T1, recombinant CpLDH protein. Particulars: reported by Zhang et al., PLoS Pathog. 2015; cited from earlier work.
For data set [3], the target named is T1, recombinant CpLDH protein. Briefly: CpLDH enzyme kinetics on substrates and co-factors. Type of data set: biochemical. The following applies: for Km: pyruvate/NADH: reduction of pyruvate to lactate, lactate/NAD+: oxidation of lactate to pyruvate, 25° C. The procedure: as §1
The mark [4] stands for this setting: HCT-8 cells, 24 h, WST-1, read-out: CYTOTOXICITY IC50.
Setting [5] is: pyruvate/NADH: reduction, lactate/NAD+: oxidation.

Usually IC50 stands for the concentration needed to halve the response being measured. Broadly, the Km is the concentration of substrate that gives half-maximal velocity.

Read-outs that look alike come from different tables or passages of the source.

For the molecule `O=c1oc2cc(O)ccc2c2oc3cc(O)ccc3c12` [NSC22842], the “effect on catalytic activity of recombinant CpLDH” value (from here on “effect on catalytic activity”) in data set [1] is “significant (P<0.05) inhibitory effect”. For the same molecule, in the data set with HCT-8 cells, the concentration for half-maximal inhibition (IC50) is 83.5 µM.
On the same counts, the results for `O=S(=O)(O)c1cc(N=[N+]([O-])c2cc(S(=O)(=O)O)c3ccccc3c2)cc2ccccc12` [NSC37031] are “significantly (P<0.05) inhibited” and 333 µM.
`O=S(=O)([O-])c1cc(N=Nc2cc(S(=O)(=O)[O-])c3ccccc3c2O)ccc1/C=C/c1ccc(N=Nc2cc(S(=O)(=O)[O-])c3ccccc3c2O)cc1S(=O)(=O)[O-].[Na+].[Na+].[Na+].[Na+]` [NSC34931]: the “effect on catalytic activity” value in data set [1] is “significant (P<0.05) inhibitory effect”. In the data set with HCT-8 cells, this molecule showed an IC50 of 71.1 µM.
The matching figures for `O=C(O)[C@@H]1[C@H](C(=O)O)[C@]2(Cl)C(Cl)=C(Cl)[C@@]1(Cl)C2(Cl)Cl` [NSC22225]: “significantly (P<0.05) inhibited” and 96.8 µM.
For the molecule `Cc1cc(N(CCCl)CCCl)ccc1/C=N/NC(=O)Cc1cc(=O)oc2cc(O)ccc12` [NSC79688], the “effect on catalytic activity” value in data set [1] is recorded as “significant (P<0.05) inhibitory effect”. Besides, in the data set with HCT-8 cells (setting [4]), the half-inhibitory concentration (IC50) was found to be 145 µM.
In the data set on HCT-8 cells, `O=C1/C(=C/c2ccccc2)CN(C(=O)/C=C/c2ccccc2)C/C1=C\c1ccccc1` [NSC638634] had an IC50 of 157 µM.
For the molecule `NC(=O)C1=CN([C@@H]2O[C@H](COP(=O)(O)OP(=O)(O)OC[C@H]3O[C@@H](n4cnc5c(N)ncnc54)[C@H](O)[C@@H]3O)[C@@H](O)[C@H]2O)C=CC1` [NADH], in data set [2], the Kcat result was “(11.70)* s^−1”, the Km is 92 µM and the Vmax entry is “(9.33)* nmol^−1 · μg^−1 · min^−1”. Moreover, the Km in data set [3] (read-out: Km) worked out at 734 µM. Besides, the Vmax in data set [3] (setting [5]) was 6.29 nmol⁻¹ µg⁻¹ min⁻¹.
As for `[Cl][Cd][Cl]` [NSC51148], the “effect on catalytic activity” value in data set [1] was “significant (P<0.05) inhibitory effect”. The IC50 in the data set with HCT-8 cells came out at 39.6 µM.
The matching figures for `Cc1ccc2c(sc(-c3ccc4c(c3)sc(-c3ccc(N(C)C)cc3)[n+]4C)[n+]2C)c1S(=O)(=O)[O-].[Cl-]` [NSC71948]: “significant (P<0.05) inhibitory effect” and 106 µM.
As for `CCOC(=O)Cc1c(C)c2cc(C(=O)c3ccccc3)c(O)cc2oc1=O` [NSC115538], the IC50 in the data set with HCT-8 cells worked out at 158 µM.
On to `NC(=O)c1ccc[n+]([C@@H]2O[C@H](COP(=O)([O-])OP(=O)(O)OC[C@H]3O[C@@H](n4cnc5c(N)ncnc54)[C@H](O)[C@@H]3O)[C@@H](O)[C@H]2O)c1` [NAD^+], for which, in data set [2], the Kcat result was “(0.70)* s^−1”, the Michaelis-Menten constant (Km) was 62 µM and the Vmax entry was “(0.56)* nmol^−1 · μg^−1 · min^−1”. Besides, the Michaelis-Menten constant (Km) in data set [3] (read-out: Km) turned out to be 56 µM. For the same molecule, in data set [3] (setting [5]), the Kcat stood at 0.11 s⁻¹ and the Vmax worked out at 0.07 nmol⁻¹ µg⁻¹ min⁻¹.
On to `Cc1cc2c(C(C)C)c(O)c(O)c(C=O)c2c(O)c1-c1c(C)cc2c(C(C)C)c(O)c(O)c(C=O)c2c1O` [NSC56817], for which the “effect on catalytic activity” value in data set [1] is recorded as “significant (P<0.05) inhibitory effect”. Moreover, in the data set on HCT-8 cells (setting [4]), the IC50 came out at 64.2 µM.
Take `CC(O)CCC(=O)c1ccoc1` (centres unmarked) [NSC349438]: the “effect on catalytic activity” value in data set [1] is listed as “significant (P<0.05) inhibitory effect”. The IC50 in the data set with HCT-8 cells stood at 93.9 µM.
With `CN(C)C(=S)SSC(=S)N(C)C` [NSC1771], the “effect on catalytic activity” value in data set [1] was “significant (P<0.05) inhibitory effect”. Besides, the IC50 with HCT-8 cells (setting [4]) was 110 µM.
Consider `CC(=O)Nc1ccc(-c2nc3ccccc3s2)cc1` [NSC33006], for which the “effect on catalytic activity” value in data set [1] is reported as “significant (P<0.05) inhibitory effect”. Moreover, in the data set on HCT-8 cells, the 50% inhibitory concentration (IC50) worked out at 87.3 µM.
The matching figures for `Cc1cc2c(c3oc(C4(C)OC4C4OC4C)cc(=O)c13)C(=O)c1c(O)c(C3CC(C)(N(C)C)C(O)C(C)O3)cc(C3CC(N(C)C)C(O)C(C)O3)c1C2=O` (centres unmarked) [NSC70929]: “significant (P<0.05) inhibitory effect” and 181 µM.
The matching figures for `O=S(=O)(O)c1cc(N=Nc2cc(S(=O)(=O)O)c3cccnc3c2O)ccc1/C=C/c1ccc(N=Nc2cc(S(=O)(=O)O)c3cccnc3c2O)cc1S(=O)(=O)O` [NSC638352]: “significant (P<0.05) inhibitory effect” and 116 µM.
The matching figures for `O=C([CH-]C(=O)C(F)(F)F)c1ccccc1.O=C([CH-]C(=O)C(F)(F)F)c1ccccc1.O=C([CH-]C(=O)C(F)(F)F)c1ccccc1.O=C([CH-]C(=O)C(F)(F)F)c1ccccc1.[Eu+3].c1ccncc1` [NSC253995]: “significant (P<0.05) inhibitory effect” and 83 µM.
Take `CC1=C(CCC(=O)O)c2cc3nc(cc4[nH]c(cc4C)cc4[nH]c(cc1n2)cc4C)C(C)=C3CCC(=O)O` [NSC18298]: in data set [1], the “effect on catalytic activity” value is reported as “significant (P<0.05) inhibitory effect”. Besides, the half-inhibitory concentration (IC50) in the data set with HCT-8 cells worked out at 81.9 µM.
As to `O=[N+]([O-])c1cccc2c(N=Nc3ccc4ccccc4c3O)c(O)cc(S(=O)(=O)O)c12.[Na+]` [NSC85561], the “effect on catalytic activity” value in data set [1] is listed as “significant (P<0.05) inhibitory effect”. In the data set on HCT-8 cells, this molecule had an IC50 of 103 µM.
Turning to `CC(=O)C(=O)O` [Pyruvate, pyruvate], in data set [3], the Michaelis constant (Km) was determined as 731 µM.
On to `O=Cc1cc([N+](=O)[O-])no1` [NSC626433], for which the “effect on catalytic activity” value in data set [1] was “significant (P<0.05) inhibitory effect”. The molecule further showed an IC50 in the data set on HCT-8 cells of 265 µM.
Take `CCOC(C)C(C=NNC(N)=S)=NNC(N)=S` (centres unmarked) [NSC82116]: the “effect on catalytic activity” value in data set [1] was “significant (P<0.05) inhibitory effect”. The molecule further had an IC50 in the data set on HCT-8 cells of 118 µM.
The molecule `COc1ccc(/C=C/C(=O)Oc2cc(O)cc(O)c2)cc1` [NSC175296] yielded a concentration for half-maximal inhibition (IC50) in the data set on HCT-8 cells of 156 µM.
The same measure, in the same setting: under `O=C(CC(=O)C(F)(F)F)c1csc2ccccc12` [NSC80396] stands 91.9 µM.
As for `N#CCCN(CCC#N)Cc1cc(O)c(CN(CCC#N)CCC#N)cc1O` [NSC70925], in data set [1], the “effect on catalytic activity” value was “significant (P<0.05) inhibitory effect”. Moreover, inhibition in the data set with HCT-8 cells was half-maximal at 142 µM (IC50).
On the same counts, the results for `O=[N+]([O-])c1ccc2c(N=Nc3c(O)ccc4ccccc34)c(O)cc(S(=O)(=O)[O-])c2c1.[Na+]` [NSC73413] are “significant (P<0.05) inhibitory effect” and 220 µM.
On the same counts, the results for `COC(=O)C1=C(C(=O)OC)SC2(S1)C(C(=O)OC)=C(C(=O)OC)Sc1c2ssc1=O` [NSC686349] are “significant (P<0.05) inhibitory effect” and 283 µM.
On to `COc1ccc(CCN(C)CCCC(C#N)(c2ccc(OC)c(OC)c2)C(C)C)cc1OC.Cl` (centres unmarked) [NSC657799], for which the “effect on catalytic activity” value in data set [1] is “significant (P<0.05) inhibitory effect”.
